Experimental data taken from patent US20110112100A1, “Hepatitis C Virus Inhibitors” (priority 2009, published 2011).
Where a name gives a salt, the structure may show the parent alone. Read-outs that look alike come from different tables or passages of the source.

What was measured:
1b (con1) replicon cells = assay: HCV 1b replicon inhibitory activity (luciferase, Britelite Plus); type: cell-based, hepatitis C virus; details: Hepatitis C virus, read-out: IC50 value (95% Confidence Intervals) pM Replicon 1B assay
Outline: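 1b (con1) luciferase replicon cells in DMEM + 10% FCS were exposed to 1-in-3 DMSO compound dilutions for 48 h at 37° C, 5% CO2. Luminescence was read 1-15 min after Britelite Plus addition; EC50 came from log concentration-response curves.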

[1] = Compound induced cytotoxicity in HCV replicon cell lines (WST-1 reagent); type: cell-based; details: human
Description: Test compounds were solubilised to 4 mM in 100% DMSO. Dilutions were made to the desired starting concentration in 100% DMSO and then 1 in 3 dilutions made, again in 100% DMSO. 0.5 μl of each sample was added to 384-well assay plates. White Lumitrac (Greiner) plates were used for the 1a and 1b replicon assays and black, clear bottomed (Greiner) plates were used for the WST-1 cytotoxity assay.
1b (con1) replicon cells were resuspended to a concentration of 1.4×10^5 cells/ml by addition of pre-warmed medium (DMEM+10% FCS). 50 μl of this suspension was added to each well of a 384-well assay plate (Black, clear bottomed, Greiner) already containing 0.5 μl of test compound.
All plates were covered with gas permeable seals and incubated at 37° C., 5% CO2 for 48 hours. After 48 hours, 5 μl WST-1 reagent (Roche, 11 644 807 001) was added to each well and the plate returned to the incubator for 3 hours. After this incubation period absorbance was read at 450 nm on an EnVision (Perkin Elmer) plate reader. The half maximal cytotoxic concentration (CC50) values were calculated for each compound by constructing log concentration-response curves.
All of the exemplified compounds have been screened in a cell proliferation assay (WST-1). A majority have […] in at least 2 independent experiments, the exceptions being the compounds of examples 1, 10, 12, 23, 25, 37, 47, 48, 49, 52, 56, 57, 58, 60, 67, 68, 69, 70, 71, 72, 73, 74, 79, 81 and 84 which have CC50 values>2 μM in 1 experiment, and example 20 where the CC50 is reported as >10 nM (in this instance the top concentration tested in the assay was 10 nM).

1a-H77 replicon cells = assay: HCV 1a replicon inhibitory activity (Renilla luciferase); type: cell-based, hepatitis C virus; details: Hepatitis C virus, read-out: IC50 value (95% Confidence Intervals) pM Replicon 1A assay
Outline: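 Replicon cells in DMEM + 10% FCS incubated 48 hours at 37° C., 5% CO2 with 1-in-3 serial dilutions of compound prepared in DMSO. Replication read as Renilla luciferase luminescence after lysis. EC50 taken from log concentration-response curves.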

[2] = 1b (con1) HCV replicon cells, WST-1, 48 hours, in 1 experiment
[3] = geometric mean, 95% confidence intervals in parentheses, 48 hours, medium with 10% FCS

With `COC(=O)N[C@H](C(=O)N1CCC[C@H]1c1nc(-c2ccc(-c3cnc4cc(-c5cnc([C@@H]6CCCN6C(=O)[C@H](NC(=O)OC)C(C)(C)C)[nH]5)ccc4n3)cc2)c[nH]1)C(C)C` [Example 73, Methyl {(2S)-1-[(2S)-2-{4-[4-(6-{2-[(2S)-1-{(2R)-2-[(methoxycarbonyl)amino]-3,3-dimethylbutanoyl}pyrrolidin-2-yl]-1H-imidazol-5-yl}quinoxalin-2-yl)phenyl]-1H-imidazol-2-yl}pyrrolidin-1-yl]-3-methyl-1-oxobutan-2-yl}carbamate trifluoroacetic acid salt] the IC50 (1b (con1) replicon cells; 48 h) was 8.11 pM, the CC50 at 48 h [1, 2] was > 2000 nM and the IC50 (1a-H77 replicon cells; 48 h) was 13.3 pM.

In the case of `COC(=O)N[C@H](C(=O)N1CCC[C@H]1c1ncc(-c2ccc(-c3ncc4cc(-c5cnc([C@@H]6CCCN6C(=O)[C@@H](NC(=O)OC)C(C)C)[nH]5)ccc4n3)nc2)[nH]1)C(C)C` [Example 20, Methyl {(2S)-1-[(2S)-2-{5-[2-(5-{2-[(2S)-1-{(2S)-2-[(methoxycarbonyl)amino]-3-methylbutanoyl}pyrrolidin-2-yl]-1H-imidazol-5-yl}pyridin-2-yl)quinazolin-6-yl]-1H-imidazol-2-yl}pyrrolidin-1-yl]-3-methyl-1-oxobutan-2-yl}carbamate], the IC50 (1b (con1) replicon cells; [3]) was 127 pM, the CC50 at 48 h ([1]; 1b (con1) HCV replicon cells, WST-1, top concentration tested in the assay was 10 nM) was > 10 nM and the IC50 (1a-H77 replicon cells; [3]) was 1720 pM.

In the case of `COC(=O)NC(C(=O)N1CCC[C@H]1c1ncc(-c2ccc3nc(-c4ccc(-c5c[nH]c([C@@H]6CCCN6C(=O)[C@@H](NC(=O)OC)C(C)C)n5)cc4)cnc3c2)[nH]1)C1CCOCC1` (stereo partly drawn) [Example 71, Methyl {(2S)-1-[(2S)-2-{4-[4-(6-{2-[(2S)-1-{[(methoxycarbonyl)amino](tetrahydro-2H-pyran-4-yl)acetyl}pyrrolidin-2-yl]-1H-imidazol-5-yl}quinoxalin-2-yl)phenyl]-1H-imidazol-2-yl}pyrrolidin-1-yl]-3-methyl-1-oxobutan-2-yl}carbamate], the IC50 (1b (con1) replicon cells; [3]) was 23.7 pM, the CC50 at 48 h [1, 2] was > 2000 nM and the IC50 (1a-H77 replicon cells; [3]) was 30.7 pM.

With `CCC[C@H](NC(C)=O)C(=O)N1CCC[C@H]1c1ncc(-c2ccc3nc(-c4ccc(-c5c[nH]c([C@@H]6CCCN6C(=O)[C@@H](NC(=O)OC)C(C)C)n5)cc4)cnc3c2)[nH]1` [Example 37, Methyl {(2S)-1-[(2S)-2-{4-{4-[6-(2-{(2S)-1-(N-acetyl-L-norvalyl)pyrrolidin-2-yl]-1H-imidazol-5-yl)quinoxalin-2-yl)phenyl]-1H-imidazol-2-yl}pyrrolidin-1-yl]-3-methyl-1-oxobutan-2-yl}carbamate trifluoroacetic acid salt] the IC50 (1b (con1) replicon cells; 48 h) was 42.9 pM, the CC50 at 48 h [1, 2] was > 2000 nM and the IC50 (1a-H77 replicon cells; 48 h) was 284 pM.

With `CC[C@H](NC(=O)OC)C(=O)N1CCC[C@H]1c1ncc(-c2ccc(-c3ccc4cc(-c5cnc([C@@H]6CCCN6C(=O)[C@H](CC)NC(=O)OC)[nH]5)ccc4c3)cc2)[nH]1` [Example 25, Methyl {(2S)-1-[(2S)-2-{5-[4-(6-{2-[(2S)-1-{(2S)-2-[(methoxycarbonyl)amino]butanoyl}pyrrolidin-2-yl]-1H-imidazol-5-yl}naphthalen-2-yl)phenyl]-1H-imidazol-2-yl}pyrrolidin-1-yl]-1-oxobutan-2-yl}carbamate] the IC50 (1b (con1) replicon cells; [3]) was 10.8 pM, the CC50 at 48 h [1, 2] was > 2000 nM and the IC50 (1a-H77 replicon cells; [3]) was 88.8 pM.

For `COC(=O)N[C@@H](Cc1ccccc1)C(=O)N1CCC[C@H]1c1ncc(-c2ccc3nc(-c4ccc(-c5c[nH]c([C@@H]6CCCN6C(=O)[C@@H](NC(=O)OC)C(C)C)n5)cc4)cnc3c2)[nH]1` [Example 49, Methyl {(2S)-1-[(2S)-2-{5-[2-(4-{2-[(2S)-1-{(2S)-2-[(methoxycarbonyl)amino]-3-methylbutanoyl}pyrrolidin-2-yl]-1H-imidazol-4-yl}phenyl)quinoxalin-6-yl]-1H-imidazol-2-yl}pyrrolidin-1-yl]-1-oxo-3-phenylpropan-2-yl}carbamate trifluoroacetic acid salt], the IC50 (1b (con1) replicon cells; 48 h) was 7.27 pM, the CC50 at 48 h [1, 2] was > 2000 nM and the IC50 (1a-H77 replicon cells; 48 h) was 73 pM.

In the case of `COC(=O)N[C@@H](CCS(C)(=O)=O)C(=O)N1CCC[C@H]1c1ncc(-c2ccc3nc(-c4ccc(-c5c[nH]c([C@@H]6CCCN6C(=O)[C@@H](NC(=O)OC)C(C)C)n5)cc4)cnc3c2)[nH]1` [Example 67, methyl [(2S)-1-[(2S)-2-{5-[2-(4-{2-[(2S)-1-{(2S)-2-[(methoxycarbonyl)amino]-3-methylbutanoyl}pyrrolidin-2-yl]-1H-imidazol-4-yl}phenyl)quinoxalin-6-yl]-1H-imidazol-2-yl}pyrrolidin-1-yl]-4-(methylsulfonyl)-1-oxobutan-2-yl]carbamate trifluoroacetic acid salt], the IC50 (1b (con1) replicon cells; 48 h) was 74.8 pM, the CC50 at 48 h [1, 2] was > 2000 nM and the IC50 (1a-H77 replicon cells; 48 h) was 27.5 pM.

In the case of `COC(=O)N[C@H](C(=O)N1CCC[C@H]1c1nc(-c2ccc(-c3cnc4cc(-c5cnc([C@@H]6CCCN6C(=O)[C@@H](NC(=O)OC)[C@@H](C)OC(C)(C)C)[nH]5)ccc4n3)cc2)c[nH]1)C(C)C` [Example 74, Methyl {(2S)-1-[(2S)-2-{4-[4-(6-{2-[(2S)-1-{(2S,3R)-3-tert-butoxy-2-[(methoxycarbonyl)amino]butanoyl}pyrrolidin-2-yl]-1H-imidazol-5-yl}quinoxalin-2-yl)phenyl]-1H-imidazol-2-yl}pyrrolidin-1-yl]-3-methyl-1-oxobutan-2-yl)carbamate], the IC50 (1b (con1) replicon cells; [3]) was 14.2 pM, the CC50 at 48 h [1, 2] was > 2000 nM and the IC50 (1a-H77 replicon cells; [3]) was 43.7 pM.

With `COC(=O)N[C@H](C(=O)N1CCC[C@H]1c1nc(-c2ccc(-c3cnc4cc(-c5cnc([C@@H]6CCCN6C(=O)[C@@H](NC(=O)OC)[C@@H](C)O)[nH]5)ccc4n3)cc2)c[nH]1)C(C)C` [Example 60, Methyl {(2S)-1-[(2S)-2-{4-[4-(6-{2-[(2S)-1-{(2S,3R)-3-hydroxy-2-[(methoxycarbonyl)amino]butanoyl}pyrrolidin-2-yl]-1H-imidazol-5-yl}quinoxalin-2-yl)phenyl]-1H-imidazol-2-yl}pyrrolidin-1-yl]-3-methyl-1-oxobutan-2-yl}carbamate trifluoroacetic acid salt] the IC50 (1b (con1) replicon cells; 48 h) was 23.7 pM, the CC50 at 48 h ([1]; WST-1, 48 hours, in 1 experiment) was > 2000 nM and the IC50 (1a-H77 replicon cells; 48 h) was 22.3 pM.

With `COC(=O)N[C@H](C(=O)N1CCC[C@H]1c1nc(-c2ccc3nc(-c4ccc(-c5cnc([C@@H]6CCCN6C(=O)[C@@H](NC(=O)OC)C(C)C)[nH]5)cc4)cc(C#N)c3c2)c[nH]1)C(C)C` [Example 23, Methyl {(2S)-1-[(2S)-2-{5-[4-(4-cyano-6-{2-[(2S)-1-{(2S)-2-[(methoxycarbonyl)amino]-3-methylbutanoyl}pyrrolidin-2-yl]-1H-imidazol-4-yl}quinolin-2-yl)phenyl]-1H-imidazol-2-yl}pyrrolidin-1-yl]-3-methyl-1-oxobutan-2-yl}carbamate] the IC50 (1b (con1) replicon cells; [3]) was 58.4 pM, the CC50 at 48 h [1, 2] was > 2000 nM and the IC50 (1a-H77 replicon cells; [3]) was 5450 pM.

In the case of `COC(=O)N[C@H](C(=O)N1CCC[C@H]1c1ncc(-c2ccc3nc(-c4ccc(-c5c[nH]c([C@@H]6CCCN6C(=O)[C@@H](NC(=O)OC)C(C)C)n5)cc4)cnc3c2)[nH]1)c1ccccc1` [Example 56, Methyl {(2S)-1-[(2S)-2-{4-[4-(6-(2-[(2S)-1-{(2S)-2-[(methoxycarbonyl)amino]-2-phenylacetyl}pyrrolidin-2-yl]-1H-imidazol-5-yl}quinoxalin-2-yl)phenyl]-1H-imidazol-2-yl}pyrrolidin-1-yl]-3-methyl-1-oxobutan-2-yl}carbamate trifluoroacetic acid salt], the IC50 (1b (con1) replicon cells; 48 h) was 10.2 pM, the CC50 at 48 h [1, 2] was > 2000 nM and the IC50 (1a-H77 replicon cells; 48 h) was 26.3 pM.

In the case of `COC(=O)N[C@H](C(=O)N1CCC[C@H]1c1nc(-c2ccc(-c3cnc4cc(-c5cnc([C@@H]6CCCN6C(=O)[C@@H](CCc6ccccc6)NC(=O)OC)[nH]5)ccc4n3)cc2)c[nH]1)C(C)C` [Example 72, Methyl {(2R)-1-[(2S)-2-{5-[2-(4-{2-[(2S)-1-{(2S)-2-[(methoxycarbonyl)amino]-3-methylbutanoyl}pyrrolidin-2-yl]-1H-imidazol-4-yl}phenyl)quinoxalin-6-yl]-1H-imidazol-2-yl}pyrrolidin-1-yl]-1-oxo-4-phenylbutan-2-yl}carbamate trifluoroacetic acid salt], the IC50 (1b (con1) replicon cells; 48 h) was 7.81 pM, the CC50 at 48 h [1, 2] was > 2000 nM and the IC50 (1a-H77 replicon cells; 48 h) was 53.6 pM.
